# Assay results taken from patent US20230285374A1, “THERAPEUTIC METHODS USING VADADUSTAT” (Akebia Therapeutics, Inc., priority 2019, published 2023).
# Experiments:
# [1] = tested on: subjects with anemia and Non-Dialysis-Dependent Chronic Kidney Disease (NDD-CKD); assay: Phase 3 open-label, active-controlled NDD-CKD Conversion/Correction Study (J01), Compound 1 vs darbepoetin alfa, 52 weeks; format: in vivo, human
# Description: This example describes the first open-label, active-controlled Phase 3 study of Compound 1 (Vadadustat or VDT or MT-6548) for treatment of anemia in subjects with Non-Dialysis-Dependent Chronic Kidney Disease (NDD-CKD) for up to 52 weeks. Efficacy and safety of Compound 1 was compared with darbepoetin alfa (DA) for the treatment of anemia in subjects with NDD-CKD. A subset of the subjects were switching to treatment with Compound 1 from an ESA therapy. […] These findings support the use of vadadustat as a durable, effective therapy for anemia in patients with NDD-CKD.
# The study population consisted of subjects 20 years of age with NDD-CKD, estimated glomerular filtration rate (eGFR)<60 mL/min/1.73 m^2, and hemoglobin (Hb) values greater than or equal to 8.0 g/dL and less than 11.0 g/dL (correction group) or greater than or equal to 9.0 g/dL and less than 12.5 g/dL (conversion group), who were currently treated with an erythropoiesis stimulating agent (ESA) for anemia.
# Following randomization, patients were treated for a period of up to 52 weeks. Patients were then observed post treatment for a period of two (2) weeks (“follow up” period).
# In order to be eligible for this study, patients were required to meet all of the following inclusion criteria: • Be at least 20 years of age, inclusive; • Have diagnosis of Chronic Kidney Disease with an estimated glomerular filtration rate (eGFR)<60 mL/minute/1.73 m^2 [eGFR (mL/min/1.73 m^2)=194×(serum creatinine)^−1.094×(age)^−0.287(females: ×0.739)] at screening; • Not have received dialysis within 8 weeks prior to the screening period nor expect to start dialysis during the treatment period; • ESA Treatment • Correction group: not receiving ESA for at least eight (8) weeks just before screening; • Conversion group: receiving the same formulation of ESA using the same administration route and the same dose interval (the dose interval should be the one described in the package insert for the ESA formulation) for at least 8 weeks just before screening using the dosages described below: Epoetin alfa and epoetin beta: ≥12,000 IU every 2 weeks Darbepoetin alfa: ≥120 μg every 2 weeks Epoetin beta pegol: ≥250 μg every 4 weeks • Baseline Hb: Correction group: ≥8.0 to <11.0 g/dL Conversion group: ≥9.0 to ≤12.0 g/dL • Have a difference of <1.5 g/dL in Hb for the latest two tests in the screening period; • Have serum ferritin values of ≥100 ng/mL or transferrin saturation of ≥20% during the screening period; and • Have folic acid and vitamin B12 values above standard minimum values during the screening period.
# Subjects deemed ineligible for into the study included those who: • Have anemia due to a cause other than CKD; • Have active bleeding or blood loss during the eight (8) weeks just before screening; • Have received a red blood cell transfusion during the eight (8) weeks just before screening; • Have uncontrolled hypertension; • Have active ocular fundus disease or cannot undergo an ocular fundus examination; • Have been diagnosed with cardiovascular disease, malignancy, or hemisiderosis; • Have a history of adverse drug reactions or a drug allergy; and • Have previously received Compound 1.
# • Average Hb level at weeks 20 and 24 of the treatment period.
# • Hb level at each treatment visit; and • The proportion of patients within the target Hb range (11.0-13.0 g/dL).
# Safety endpoints for this study were defined as follows: • Adverse events (AEs); • Adverse drug reactions; and
# Other endpoints for this study were defined as follows: • Iron-related parameters: serum ferritin, transferrin saturation (TSAT), total iron-binding capacity (TIBC), hepcidin, serum iron, and monthly dose of iron by any route of administration (oral and intravenous); and • Red blood cell indices. […]
# [2] = tested on: subjects receiving hemodialysis, previously maintained on epoetin alfa; assay: Open-label Phase 2 trial in subjects receiving hemodialysis previously maintained on epoetin alfa
# Description: The primary endpoint was mean hemoglobin (Hb) change from pre-baseline average to midtrial (Weeks 7-8) and end-of trial (Weeks 15-16) and was analyzed using available data (no imputation).
# [3] = 52 weeks LOCF compared with baseline
smiles,measurement,setting,value
"O=C(O)CNC(=O)c1ncc(-c2cccc(Cl)c2)cc1O [Compound 1, Vadadustat]",Deaths due to AEs,[1]; 52 weeks,0 (0.0) n (%)
same,"MCH, change",[1]; [3],significantly increased
same,"MCHC, change",[1]; [3],significantly increased
same,"MCV, change",[1]; [3],significantly increased
same,"RDW, change",[1]; [3],no significant differences
same,"TIBC, change",[1]; [3],significant increase
same,"TSAT, change",[1]; [3],no significant difference
same,"hepcidin, change",[1]; [3],significant decreases
same,"serum ferritin, change",[1]; [3],significant decreases
same,week at which mean Hb reached the target range (11.0-13.0 g/dL),[1]; ESA non-users,8 week
same,proportion of patients with Hb levels within the target range,"[1]; ESA non-users, Week 52",71.4%
same,proportion of patients with Hb levels within the target range,"[1]; ESA non-users, baseline",15.5%
same,week at which mean Hb reached the target range (11.0-13.0 g/dL),[1]; ESA users,8 week
same,proportion of patients with Hb levels within the target range,"[1]; ESA users, Hb<11.0 g/dl subgroup, Week 52",78.3%
same,proportion of patients with Hb levels within the target range,"[1]; ESA users, Hb<11.0 g/dl subgroup, baseline",4.7%
same,proportion of patients with Hb levels within the target range,"[1]; ESA users, Hb≥11.0 g/dl subgroup, Week 52",80.0%
same,proportion of patients with Hb levels within the target range,"[1]; ESA users, Hb≥11.0 g/dl subgroup, baseline",91.9%
same,proportion of patients with Hb levels within the target range,"[1]; ESA users, Week 52",79.2%
same,proportion of patients with Hb levels within the target range,"[1]; ESA users, baseline",45.0%
same,Hb levels during the treatment period,"[1]; ESA users, screening Hb ≥11.0 g/dl subgroup",maintained within the target range throughout the treatment period
same,time at which mean Hb reached the target range,"[1]; ESA users, screening Hb<11.0 g/dl subgroup",12 weeks
same,proportion of patients within the target Hb range,"[1]; conversion group, week 24",66.7%
same,average Hb at baseline,[1]; conversion patients,10.68 g/dL
same,average Hb at week 24,[1]; conversion patients,11.27 g/dL
same,average Hb at baseline,[1]; correction patients,10.17 g/dL
same,average Hb at week 24,[1]; correction patients,11.85 g/dL
same,proportion of patients within the target Hb range of 11.0-13.0 g/dL,"[1]; correction patients, week 24",69.7%
same,Adverse drug reaction,"[1]; human, in vivo, 52 weeks",20 (13.2) n (%)
same,Cardiac failure (AE of special interest),"[1]; human, in vivo, 52 weeks",6 (4.0) n (%)
same,Cardiovascular event (AE of special interest),"[1]; human, in vivo, 52 weeks",3 (2.0) n (%)
same,Constipation,"[1]; human, in vivo, 52 weeks",14 (9.3) n (%)
same,Diarrhea,"[1]; human, in vivo, 52 weeks",18 (11.9) n (%)
same,Discontinuation due to AEs,"[1]; human, in vivo, 52 weeks",10 (6.6) n (%)
same,Dose reduction or interruption of study drug due to AEs,"[1]; human, in vivo, 52 weeks",11 (7.3) n (%)
same,Hyperkalemia (AE of special interest),"[1]; human, in vivo, 52 weeks",1 (0.7) n (%)
same,Malignancy (AE of special interest),"[1]; human, in vivo, 52 weeks",2 (1.3) n (%)
same,Nasopharyngitis,"[1]; human, in vivo, 52 weeks",37 (24.5) n (%)
same,Pulmonary hypertension (AE of special interest),"[1]; human, in vivo, 52 weeks",0 (0.0) n (%)
same,Retinal disorder (AE of special interest),"[1]; human, in vivo, 52 weeks",4 (2.6) n (%)
same,Serious AEs,"[1]; human, in vivo, 52 weeks",42 (27.8) n (%)
same,Serious adverse drug reaction,"[1]; human, in vivo, 52 weeks",0 (0.0) n (%)
same,Subjects with ≥ 1 AE,"[1]; human, in vivo, 52 weeks",136 (90.1) n (%)
same,constipation,"[1]; human, in vivo, 52 weeks",9.3%
same,diarrhea,"[1]; human, in vivo, 52 weeks",11.9%
same,"incidence of adverse events (AEs), at least one AE","[1]; human, in vivo, 52 weeks",90.1%
same,incidence of serious adverse events (SAEs),"[1]; human, in vivo, 52 weeks",27.8%
same,nasopharyngitis,"[1]; human, in vivo, 52 weeks",24.5%
same,mean Hb level at week 52,[1]; overall population,11.51 g/dL
same,week at which mean Hb reached the target range (11.0-13.0 g/dL),[1]; overall population,8 week
same,LSMean of the average Hb at weeks 20 and 24,"[1]; overall population, MMRM",11.66 g/dL
same,Difference (Compound 1-Darbepoetin alfa) in LSMean of the average Hb at weeks 20 and 24,"[1]; overall population, noninferiority margin −0.75 g/dL",-0.26 g/dL
same,subjects with an Hb excursion>13 g/dL,[2]; all cohorts,one
same,mean change in Hb from pre-baseline average,"[2]; all dose cohorts (300 mg QD, 450 mg QD, 450 mg TIW), Weeks 7-8 and 15-16",no statistically significant mean change
same,serious AEs attributed to study drug,"[2]; human, in vivo",No serious AEs
same,diarrhea,[2]; overall,10.6%
same,nausea,[2]; overall,11.7%
same,subjects who experienced an adverse event (AE),[2]; overall,83%
same,vomiting,[2]; overall,9.6%
